Assay results as given in the supplement of paper PMC10883282.
± gives the standard deviation of the averaged measurements.

Test system: A204
Test: relative viability vs DMSO control (72 h) (fraction); higher = more viable cells
Method in brief: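 Sarcoma cell lines were grown in 384-well plates seeded toward 80–90% confluence and exposed 24 h later to serially diluted compound. After 72 h at 37 °C and 5% CO2, with 0.1% DMSO vehicle and a 5 µM positive control on the plates, ATPLite was read. Relative viability, given as percent growth averaged over up to triplicate wells, was rescaled so that 1 is full and 0 is none.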

SMILES | relative viability (0.00017 µM) | relative viability (0.00051 µM) | relative viability (0.00152 µM) | relative viability (0.00457 µM) | relative viability (0.01372 µM) | relative viability (0.04115 µM) | relative viability (0.1235 µM) | relative viability (0.3704 µM) | relative viability (1.111 µM) | relative viability (3.333 µM) | relative viability (10 µM) | relative viability (2 pM) | relative viability (5 pM) | relative viability (15 pM) | relative viability (50 pM) | relative viability (0.00014 µM) | relative viability (0.00041 µM) | relative viability (0.0012 µM) | relative viability (0.0037 µM) | relative viability (0.011 µM) | relative viability (200 fM) | relative viability (600 fM)
CCc1cc2c(cc1N1CCC(N3CCOCC3)CC1)C(C)(C)c1[nH]c3cc(C#N)ccc3c1C2=O [Alectinib] | 1.09 ± 0.015 | 1.07 ± 0.028 | 1.09 ± 0.023 | 1.1 ± 0.036 | 1.08 ± 0.012 | 1.09 ± 0.0079 | 1.13 ± 0.021 | 1.13 ± 0.014 | 1.104 ± 0.005 | 1.14 ± 0.036 | 1.14 ± 0.07 |  |  |  |  |  |  |  |  |  |  | 
COCc1c(-c2cc3cc(C)cc(OC)c3s2)c2c(N)ncnn2c1CN1CCNC(=O)C1 [Rogaratinib] | 1.09 ± 0.039 | 1.07 ± 0.069 | 1.09 ± 0.036 | 1.08 ± 0.019 | 1.05 ± 0.039 | 0.95 ± 0.058 | 0.827 ± 0.048 | 0.631 ± 0.043 | 0.548 ± 0.008 | 0.44 ± 0.014 | 0.268 ± 0.025 |  |  |  |  |  |  |  |  |  |  | 
C[C@@H]1CCN(C(=O)CC#N)C[C@@H]1N(C)c1ncnc2[nH]ccc12 [Tofacitinib] | 1.09 ± 0.031 | 1.09 ± 0.014 | 1.04 ± 0.046 | 1.08 ± 0.023 | 1.06 ± 0.064 | 1.04 ± 0.094 | 1.02 ± 0.052 | 1.06 ± 0.017 | 1.04 ± 0.057 | 1.02 ± 0.014 | 0.99 ± 0.033 |  |  |  |  |  |  |  |  |  |  | 
O=C(Cc1ccc(-c2ccc(OCCN3CCOCC3)cc2)cn1)NCc1ccccc1 [KX2-391] | 1.09 ± 0.031 | 1.07 ± 0.042 | 1.11 ± 0.04 | 1.05 ± 0.033 | 1.04 ± 0.084 | 0.894 ± 0.072 | 0.458 ± 0.064 | 0.36 ± 0.032 | 0.341 ± 0.014 | 0.31 ± 0.02 | 0.266 ± 0.0096 |  |  |  |  |  |  |  |  |  |  | 
C[C@@H](c1ccc2nccn2c1)n1nnc2ncc(-c3cnn(C)c3)nc21 [Volitinib] | 1.05 ± 0.014 | 1.08 ± 0.046 | 1.1 ± 0.031 | 1.08 ± 0.038 | 1.08 ± 0.033 | 1.07 ± 0.026 | 1.06 ± 0.031 | 1.06 ± 0.044 | 1.05 ± 0.042 | 0.962 ± 0.038 | 0.842 ± 0.072 |  |  |  |  |  |  |  |  |  |  | 
C[C@]1(O)C[C@@H](c2nc(-c3ccc4ccc(-c5ccccc5)nc4c3)c3c(N)nccn32)C1 [Linsitinib] | 1.08 ± 0.049 | 1.05 ± 0.058 | 1.05 ± 0.021 | 1.06 ± 0.05 | 1.03 ± 0.017 | 1.03 ± 0.048 | 1.04 ± 0.087 | 0.99 ± 0.077 | 0.907 ± 0.063 | 0.755 ± 0.097 | 0.476 ± 0.017 |  |  |  |  |  |  |  |  |  |  | 
COc1cc2c(Oc3ccc4[nH]c(C)cc4c3F)ncnc2cc1OCCCN1CCCC1 [Cediranib] | 1.086 ± 0.0095 | 1.06 ± 0.017 | 1.08 ± 0.064 | 1.09 ± 0.024 | 0.984 ± 0.051 | 0.882 ± 0.09 | 0.457 ± 0.0087 | 0.336 ± 0.0094 | 0.251 ± 0.027 | 0.182 ± 0.0051 | 0.00917 ± 0.0011 |  |  |  |  |  |  |  |  |  |  | 
CC(C)(C)c1cc(NC(=O)Nc2ccc(-c3cn4c(n3)sc3cc(OCCN5CCOCC5)ccc34)cc2)no1 [Quizartinib] | 1.05 ± 0.035 | 1.08 ± 0.02 | 1.06 ± 0.032 | 1.08 ± 0.023 | 1.067 ± 0.0075 | 0.946 ± 0.039 | 0.752 ± 0.052 | 0.472 ± 0.011 | 0.42 ± 0.02 | 0.369 ± 0.032 | 0.396 ± 0.021 |  |  |  |  |  |  |  |  |  |  | 
COc1cc2/c(=N/c3ccc(Br)cc3F)nc[nH]c2cc1OCC1CCN(C)CC1 [Vandetanib] | 1.04 ± 0.076 | 1.02 ± 0.018 | 1.02 ± 0.049 | 1.03 ± 0.067 | 1.04 ± 0.046 | 1 ± 0.067 | 0.981 ± 0.057 | 0.93 ± 0.07 | 0.706 ± 0.039 | 0.348 ± 0.073 | 0.0148 ± 0.0046 |  |  |  |  |  |  |  |  |  |  | 
COc1cc2c(cc1O)CCN[C@]21CS[C@@H]2c3c(OC(C)=O)c(C)c4c(c3[C@H](COC1=O)N1[C@@H]2[C@H]2c3c(cc(C)c(OC)c3O)C[C@@H]([C@@H]1O)N2C)OCO4 [Trabectedin] |  |  |  |  |  |  |  |  |  |  |  | 1.08 ± 0.026 | 1.06 ± 0.03 | 1.05 ± 0.056 | 0.979 ± 0.02 | 0.84 ± 0.031 | 0.399 ± 0.17 | 0.156 ± 0.13 | 0.215 ± 0.0065 | 0.202 ± 0.014 | 1.07 ± 0.03 | 1.1 ± 0.043
Nc1cc(C(F)(F)F)c(-c2cc(N3CCOCC3)nc(N3CCOCC3)n2)cn1 [Buparlisib] | 1.05 ± 0.023 | 1.03 ± 0.021 | 1.05 ± 0.032 | 1.02 ± 0.013 | 1.03 ± 0.065 | 1.01 ± 0.038 | 0.879 ± 0.021 | 0.673 ± 0.011 | 0.332 ± 0.066 | 0.174 ± 0.0058 | 0.155 ± 0.0086 |  |  |  |  |  |  |  |  |  |  | 
CC(C)NC(=O)C1CCC(n2c(NC(=O)c3ccc(F)cc3)nc3ccc(CN4CCC(C(C)(C)O)CC4)cc32)CC1 (stereo not drawn) [Belizatinib] | 1.1 ± 0.019 | 1.11 ± 0.056 | 1.11 ± 0.034 | 1.08 ± 0.02 | 1.092 ± 0.0066 | 1.09 ± 0.044 | 1.08 ± 0.026 | 1.05 ± 0.029 | 0.984 ± 0.086 | 0.727 ± 0.019 | 0.361 ± 0.069 |  |  |  |  |  |  |  |  |  |  | 
N#CC[C@H](C1CCCC1)n1cc(-c2ncnc3[nH]ccc23)cn1 [Ruxolitinib] | 1.02 ± 0.015 | 1.03 ± 0.018 | 1.02 ± 0.049 | 1.02 ± 0.027 | 1.01 ± 0.026 | 1.01 ± 0.005 | 1.008 ± 0.0097 | 0.983 ± 0.031 | 0.96 ± 0.083 | 0.789 ± 0.053 | 0.655 ± 0.05 |  |  |  |  |  |  |  |  |  |  | 
